From ChEMBL document CHEMBL5131411, “Evaluation of amentoflavone metabolites on PARP-1 inhibition and the potentiation on anti-proliferative effects of carboplatin in A549 cells” (Bioorg Med Chem Lett, 2022)
Active and inactive are the calls of the source. The calls are words filed in the database; no cut-off is given here.

Legend:
[1] = test system: A549; experiment: Potentiation of carboplatin induced antiproliferative activity against human A549 cells assessed as increase in apoptotic cells at 0.1 to 10 uM by Hoechst staining based assay; type: functional, cell-based; conditions: dose 0.1-10 µM
[2] = target: Poly [ADP-ribose] polymerase 1 (Homo sapiens, UniProt P09874); experiment: Inhibition of PARP1 (unknown origin)
[3] = test system: A549; experiment: Potentiation of carboplatin induced antiproliferative activity against human A549 cells assessed as increase in apoptotic cells at 0.1 to 10 uM by Annexin V-PI double staining based flow cytometric analysis; type: functional, cell-based; conditions: dose 0.1-10 µM
[4] = test system: A549; experiment: Potentiation of carboplatin induced antiproliferative activity against human A549 cells assessed as reduction in cell viability at 0.1 to 10 uM by MTT assay; type: functional, cell-based; conditions: dose 0.1-10 µM
[5] = test system: A549; experiment: Potentiation of carboplatin induced antiproliferative activity against human A549 cells assessed as increase in apoptotic cells at 10 uM by Annexin V-PI double staining based flow cytometric analysis; type: functional, cell-based
[6] = test system: A549; experiment: Potentiation of carboplatin induced antiproliferative activity against human A549 cells assessed as increase in apoptotic cells at 10 uM by Hoechst staining based assay; type: functional, cell-based
[7] = test system: A549; experiment: Potentiation of carboplatin induced antiproliferative activity against human A549 cells assessed as reduction in cell viability at 10 uM by MTT assay; type: functional, cell-based

Chain of Poly [ADP-ribose] polymerase 1 (P09874 whole entry): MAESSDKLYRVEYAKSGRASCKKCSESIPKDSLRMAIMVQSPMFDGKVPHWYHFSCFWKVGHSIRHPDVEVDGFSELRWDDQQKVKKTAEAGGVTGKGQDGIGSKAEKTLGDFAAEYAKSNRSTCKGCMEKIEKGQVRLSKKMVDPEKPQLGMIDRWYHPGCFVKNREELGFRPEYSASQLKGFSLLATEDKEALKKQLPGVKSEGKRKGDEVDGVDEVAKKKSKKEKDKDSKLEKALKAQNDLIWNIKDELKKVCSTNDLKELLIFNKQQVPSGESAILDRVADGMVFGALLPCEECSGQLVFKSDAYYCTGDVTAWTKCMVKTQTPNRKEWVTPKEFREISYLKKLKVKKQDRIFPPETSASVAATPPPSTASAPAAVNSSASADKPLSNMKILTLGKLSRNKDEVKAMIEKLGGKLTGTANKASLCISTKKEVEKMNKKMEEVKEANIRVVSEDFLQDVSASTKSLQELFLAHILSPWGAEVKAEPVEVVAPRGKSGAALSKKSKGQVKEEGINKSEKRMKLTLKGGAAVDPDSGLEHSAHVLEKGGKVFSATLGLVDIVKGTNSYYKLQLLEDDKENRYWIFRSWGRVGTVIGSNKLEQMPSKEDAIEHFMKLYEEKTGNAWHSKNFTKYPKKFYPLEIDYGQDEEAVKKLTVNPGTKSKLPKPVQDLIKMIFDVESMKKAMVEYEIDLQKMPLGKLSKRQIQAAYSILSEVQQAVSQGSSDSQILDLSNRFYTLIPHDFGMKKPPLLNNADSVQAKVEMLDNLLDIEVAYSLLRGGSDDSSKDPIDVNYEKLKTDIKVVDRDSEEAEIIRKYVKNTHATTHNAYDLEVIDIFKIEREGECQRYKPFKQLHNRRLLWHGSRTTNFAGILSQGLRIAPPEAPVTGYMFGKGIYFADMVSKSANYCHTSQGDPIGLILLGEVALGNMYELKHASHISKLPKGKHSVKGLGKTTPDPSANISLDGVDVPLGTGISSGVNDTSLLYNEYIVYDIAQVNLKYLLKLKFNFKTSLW

| IC50 [2] | IC50 ([2]; read-out: IC50) | Compound | Activity [1] | Activity [3] | Activity [4] | Activity [5] | Activity [6] | Activity [7] |
| --- | --- | --- | --- | --- | --- | --- | --- | --- |
| 0.0804 µg/mL | 170 nM | O=c1cc(-c2ccc(O)c(-c3c(O)cc(O)c4c(=O)cc(-c5ccc(OS(=O)(=O)O)cc5)oc34)c2)oc2cc(O)cc(O)c12 | Active | Active | Active | – | – | – |
| – | 240 nM | O=c1c(O)c(-c2ccc(O)c(-c3c(O)cc(O)c4c(=O)cc(-c5ccc(OS(=O)(=O)O)cc5)oc34)c2)oc2cc(OS(=O)(=O)O)cc(O)c12 | – | – | – | – | – | – |
| 0.1398 µg/mL | 120 nM | O=c1cc(-c2ccc(O)c(-c3c(O)cc(O)c4c(=O)cc(-c5ccc(O)cc5)oc34)c2)oc2cc(O)cc(O)c12 [AMENTOFLAVONE] | – | – | – | Active | Active | Active |
| 0.1158 µg/mL | 510 nM | O=c1c(O)c(-c2ccc(O)c(-c3c(O)cc(O)c4c(=O)cc(-c5ccc(O)cc5)oc34)c2)oc2cc(OS(=O)(=O)O)cc(O)c12 | – | – | – | – | – | – |
